Columns and labels:
[1] = test system: Escherichia coli strain ATCC25922 ("EC10"); experiment: FTIR heavy-water labeling level (metabolism) versus antibiotic concentration, strain EC10; format: cell-based; conditions: FIG. 4C, amoxicillin 1-64 μg/mL, two hours incubation, Mueller-Hinton medium with 50% v/v heavy water
Method: (§1) Once the LDA classifier had been parameterized, it was used in a test phase on Escherichia coli cultures.
(§2) An overnight pre-culture was performed to synchronize the metabolic states of the bacterial populations. Test samples were prepared using different concentrations of amoxicillin (64, 32, 16, 8, 4, 2 and 1 μg/mL), and a culture of each strain was prepared in 2 ml of Mueller-Hinton medium with 50% v/v heavy water and antibiotic. A control sample without antibiotic was prepared. The test samples were then incubated for two hours. After incubation, the test samples were centrifuged and re-suspended in 30 μL of water, then a 5 μl drop was placed on a calcium fluoride slide. The slide was dried by exposure to a hot, dry atmosphere. On each test sample, 64 spectra are acquired using an FTIR microscope at 15× magnification, in order to eliminate potential variations in the sample's thickness of texture.
(§3) This provided test spectra corresponding to the exposure of bacterial strains to different antibiotic concentrations. The algorithm parameterized during the training phase enabled measuring a labeling level for each sample, which is considered representative of metabolic activity.

[2] = test system: Escherichia coli strain ATCC35218 ("EC207"); experiment: FTIR heavy-water labeling level (metabolism) versus antibiotic concentration, strain EC207; format: cell-based; conditions: FIG. 4C, amoxicillin 1-64 μg/mL, two hours incubation, Mueller-Hinton medium with 50% v/v heavy water
Method: as §1, §2, §3

[3] = test system: Escherichia coli strain ATCC25922 ("EC10"); conditions: cited from earlier work
[4] = test system: Escherichia coli strain ATCC35218 ("EC207"); conditions: cited from earlier work
[5] = test system: Staphylococcus Saprophyticus strains SS91, SS96; experiment: FTIR heavy-water labeling level (metabolism) versus antibiotic concentration, strains not used during training; format: cell-based; conditions: FIG. 5; each of strains SS91 and SS96, above a strain-specific antibiotic concentration (value not given)
Excerpt: The x-axis corresponds to the antibiotic concentration (Gentamicin). The y-axis corresponds to a labeling level.

Compound	concentration above which the strain is sensitive (labeling level decreases) [1]	resistance judged from labeling level (metabolism) [2]	sensitivity to the antibiotic (reference strain status) [3]	concentration above which growth inhibition is exhibited ([3]; reference strain ATCC25922 (EC10))	sensitivity to the antibiotic (reference strain status) [4]	labeling level as a function of antibiotic concentration [5]
CC1(C)S[C@@H]2[C@H](NC(=O)[C@H](N)c3ccc(O)cc3)C(=O)N2[C@H]1C(=O)O [amoxicillin]	~10 µg/mL	resistant to all the antibiotic concentrations used	sensitive	4 µg/mL	resistant	
Gentamicin						labeling level decreases

Source: patent publication US20250210145A1, “METHOD FOR DETERMINING THE RESISTANCE OF A MICROORGANISM TO AN ANTIMICROBIAL AGENT” (Commissariat à l'Energie Atomique et aux Energies …, priority 2023, published 2025)
